The text below walks through data of patent publication US11136613B2, “Antibacterial polypeptide libraries and methods for screening the same” (priority 2015, dated 2021).

Assay type in all cases: cell-based
For one assay, the system named is A. baumannii. Briefly: Surface expression of 2× tether+cecropin P1 or HA in A. baumannii. The settings on record: 2× tether surface expression. From the text: FIG. 3: Surface expression of 2× tether+cecropin P1 or HA in A. baumannii. Addition of IPTG leads to rapid lysis of cecropin P1 containing A. baumannii.
The platform uses a plasmid with a broad host range origin of replication offering flexibility to identify antimicrobial peptides in many gram-negative bacteria. For example, A. baumannii is a gram-negative, hospital-associated pathogen that quickly acquires antibiotic resistance. […] The selective marker on this plasmid can be changed to allow its use in bacteria with different antibiotic resistant profiles.

In a further assay the test system is E. coli strain WD101. The settings on record: surface displayed peptide, 2× tether, 0.1 mM IPTG.
Assay [1] concerns wild type E. coli strain W3110. The settings on record: for cell lysis measured by decrease in culture optical density after IPTG induction: surface displayed peptide, E. coli W3110, IPTG added.
For a further assay, the system named is E. coli. Briefly: Co-culture of 2× tether+cecropin P1 expressing E. coli and empty vector E. coli, CFU plating and plasmid qPCR. The settings on record: 3 hours.

With “cecropin P1 (SWLSKTAKKLENSAKKRISEGIAIAIQGGPR; Cecropin-P1; UniProt P14661 14-44, looked up) [known antimicrobial peptide that lyses many gram-negative bacteria through disruption of the outer membrane; positive control]”, the “lysis of A. baumannii after addition of IPTG” value in the assay on A. baumannii was “rapid lysis”. Moreover, in the assay on E. coli strain WD101, the “cell lysis in resistant strain WD101 compared with parental strain W3110” value is given as “less cell lysis”. Besides, the “cell lysis measured by decrease in culture optical density after IPTG induction” value in assay [1] was “begin to lyse”. Moreover, the “efficiency of cell lysis depending on tether” value in assay [1] (two (2×) tandem low-complexity-region protein tethers, versus 0 and 1× tether, 0.1 mM IPTG) is on record as “most efficient lysis”. In addition, the “difference in recoverable colony forming units between peptide expressing and control bacteria” value with E. coli (co-culture in equal ratio, 0.1 mM IPTG) is reported as 2-3 log. For the same substance, the “decrease of ratio of peptide encoding plasmid to empty vector (qPCR)” value in the assay on E. coli (co-culture, 0.1 mM IPTG induction) is on record as roughly 50 fold.

Take Dermaseptin: the “cell lysis measured by decrease in culture optical density after IPTG induction” value in assay [1] is listed as “same impact on cell growth”.
